This note sets out measurements from ChEMBL document CHEMBL4665683, “Oxygenated Geosmins and Plant-like Eudesmanes from a Bacterial Mangrove Endophyte” (2020).

Holding throughout (type): functional
For one test, the system named is Enterococcus faecalis. The experiment in a line: Antibacterial activity against vancomycin-resistant Enterococcus faecalis 1528 R10 assessed as zone of inhibition after 24 hrs by disk diffusion method.
Test [1] relates to Sporobolomyces salmonicolor. Put plainly: Antifungal activity against Sporidiobolus salmonicolor SBUG 549 assessed as zone of inhibition after 24 hrs by disk diffusion method.
A further test concerns Bacillus subtilis. The experiment in a line: Antibacterial activity against Bacillus subtilis ATCC 6633 assessed as zone of inhibition after 24 hrs by disk diffusion method.
The next test relates to Mycolicibacterium vaccae. Put plainly: Antibacterial activity against Mycobacterium vaccae IMET 10670 assessed as zone of inhibition after 24 hrs by disk diffusion method. On the technique in general: Agar diffusion results depend on both activity and mobility in agar.
The test system of test [2] is Staphylococcus aureus. Put plainly: Antibacterial activity against Staphylococcus aureus SG511 assessed as zone of inhibition after 24 hrs by disk diffusion method.
For test [3], the system named is Pseudomonas aeruginosa. Put plainly: Antibacterial activity against Pseudomonas aeruginosa BG137 B7 assessed as zone of inhibition after 24 hrs by disk diffusion method.
In the next test the test system is Escherichia coli. Put plainly: Antibacterial activity against Escherichia coli SG458 assessed as zone of inhibition after 24 hrs by disk diffusion method.
Test [4] deals with Pseudomonas aeruginosa. The experiment in a line: Antibacterial activity against Pseudomonas aeruginosa K799/61 assessed as zone of inhibition after 24 hrs by disk diffusion method.
A further test has as its system Penicillium chrysogenum. The experiment in a line: Antifungal activity against Penicillium chrysogenum JP36 assessed as zone of inhibition after 24 hrs by disk diffusion method.
Test [5] concerns Staphylococcus aureus. Put plainly: Antibacterial activity against methicillin-resistant Staphylococcus aureus 134/94 R9 assessed as zone of inhibition after 24 hrs by disk diffusion method.

Molecules are shown by their SMILES.

`C[C@H]1CCC[C@@]2(C)CC[C@@H](C(C)(C)O)C[C@]12O`: the “inhibition zone (IZ)” value in the test on Enterococcus faecalis was 11 mm; in test [1], 12 mm; in the test on Bacillus subtilis, 12 mm; in the test on Mycolicibacterium vaccae, 14 mm; in the test on Staphylococcus aureus [2], 12 mm; in the test on Pseudomonas aeruginosa [3], 11 mm. For the same molecule, the “inhibition zone (IZ)” value in the test on Escherichia coli is 10 mm; in the test on Pseudomonas aeruginosa [4] it was 11 mm; in the test with Penicillium chrysogenum, 12 mm; in the test with Staphylococcus aureus [5] it was 11 mm.

Take `C[C@H]1C(=O)CC[C@@]2(C)CCCC[C@]12O`: the “inhibition zone (IZ)” value with Enterococcus faecalis worked out at 10 mm; in test [1], 0 mm; in the test on Bacillus subtilis, 10 mm; in the test with Mycolicibacterium vaccae it was 0 mm; in the test with Staphylococcus aureus [2], 0 mm; in the test with Pseudomonas aeruginosa [3], 10 mm. In addition, the “inhibition zone (IZ)” value was 0 mm in the test with Escherichia coli, 10 mm with Pseudomonas aeruginosa [4], 0 mm in the test on Penicillium chrysogenum and 0 mm in the test on Staphylococcus aureus [5].

In the case of `C[C@@H]1[C@H](O)[C@@H](C)/C=C/C=C/C=C/C=C/C=C/C=C/C=C/[C@H](O[C@@H]2O[C@H](C)[C@@H](O)[C@H](N)[C@@H]2O)C[C@@H]2O[C@](O)(C[C@@H](O)C[C@@H](O)[C@H](O)CC[C@@H](O)C[C@@H](O)CC(=O)O[C@H]1C)C[C@H](O)[C@H]2C(=O)O` [AMPHOTERICIN B], the “inhibition zone (IZ)” value in [1] was 13 mm; in the test on Mycolicibacterium vaccae, 13 mm; with Penicillium chrysogenum, 17 mm.

Turning to `O=C(N[C@H](CO)[C@H](O)c1ccc([N+](=O)[O-])cc1)C(Cl)Cl` [CHLORAMPHENICOL], the “inhibition zone (IZ)” value with Enterococcus faecalis is given as 17 mm; with Bacillus subtilis it was 29 mm; in the test on Mycolicibacterium vaccae, 20 mm; in the test on Staphylococcus aureus [2] it was 17 mm; with Pseudomonas aeruginosa [3], 24 mm; in the test on Escherichia coli, 23 mm. In addition, the “inhibition zone (IZ)” value in the test on Pseudomonas aeruginosa [4] worked out at 24 mm; in the test with Staphylococcus aureus [5] it was 0 mm.

Regarding `C[C@H]1CCC[C@@]2(C)CC[C@@H](O)C[C@]12O`, the “inhibition zone (IZ)” value in the test with Enterococcus faecalis was 0 mm; in test [1], 0 mm; in the test on Bacillus subtilis, 10 mm; in the test on Mycolicibacterium vaccae it was 0 mm; with Staphylococcus aureus [2], 0 mm; in the test with Pseudomonas aeruginosa [3] it was 10 mm. Further, the “inhibition zone (IZ)” value was 10 mm in the test with Escherichia coli, 10 mm in the test with Pseudomonas aeruginosa [4], 0 mm in the test with Penicillium chrysogenum and 0 mm in the test on Staphylococcus aureus [5].
